What was measured:
[1] = Uptake of αPLL of varying molecular weight by Formulation C lenses; assay type: physicochemical; conditions: 1.8 ml 500 ppm αPLL in PBS, autoclave and overnight storage at room temperature, hydrobromide
Method: Solutions of 500 ppm poly-L-lysine hydrobromide (CAS No. 25988-63-0) (αPLL) with varying molecular weight ranges were prepared in PBS. Lenses of Formulation C prepared as described in Example 1 were packaged with 1.8 ml of each solution and autoclaved. After autoclave and overnight storage at room temperature uptake of αPLL was measured.

[2] = Release of αPLL of varying molecular weight from Formulation C lenses; assay type: physicochemical; conditions: for release between the 6 hour and 24 hour time points (in words): hydrobromide
Method: Lenses of Formulations B-E prepared according to Example 1 were used in this study. The lenses were immersed in 1.2 ml of 500 ppm εPLL in PBS for 48 hours as described in Example 3. Excess solution was removed from each lens by gently blotting with an absorbent tissue. Each lens was immersed in 1 ml of ISO 10344 standard saline solution (0.83% sodium chloride, 0.0467% sodium phosphate monobasic, and 0.4486% sodium phosphate dibasic) in a well of a 12-well plate and covered. The plates were shaken at 100 rpm at 37±2° C. At 2, 4, 6, 8, 12, and 24 hours, the solution was removed from each well and replaced with 1 ml of fresh ISO 10344 standard saline solution. HPLC was used to determine the amount of εPLL released from each lens.
Polymer release was tested substantially as described in Example 4, except that the time points tested were at 2, 6, and 24 hr.

Substance: poly-L-lysine hydrobromide [Formulation 30K-70K]
- uptake [1]: 299 μg/lens

Substance: poly-L-lysine hydrobromide [Formulation 1K-5K]
- duration of sustained release (in words) [2]: sustained for at least two hours
- release between the 6 hour and 24 hour time points (in words) [2]: no significant release
- uptake [1]: 142 μg/lens

Substance: poly-L-lysine hydrobromide [Formulation 500-2K]
- duration of sustained release (in words) [2]: sustained for at least two hours
- release between the 6 hour and 24 hour time points (in words) [2]: no significant release
- uptake [1]: 122 μg/lens

Substance: poly-L-lysine hydrobromide [Formulation 15K-30K]
- release between the 6 hour and 24 hour time points (in words) [2]: significant release
- uptake [1]: 414 μg/lens

Substance: poly-L-lysine hydrobromide [Formulation 4K-15K]
- release between the 6 hour and 24 hour time points (in words) [2]: significant release
- uptake [1]: 400 μg/lens

Substance: poly-L-lysine hydrobromide [Formulation 70K-150K]
- release of polymer detected (in words) ([2]; time points 2, 6, and 24 hr): No significant release
- uptake [1]: 185 μg/lens
